This is an account of results in patent US7674819B2 (Warner-Lambert Company LLC, priority 2005, dated 2010).

For one assay, the target named is T1, androgen receptor (Homo sapiens, UniProt P10275).
T1 sequence (P10275 1-920 Q868H): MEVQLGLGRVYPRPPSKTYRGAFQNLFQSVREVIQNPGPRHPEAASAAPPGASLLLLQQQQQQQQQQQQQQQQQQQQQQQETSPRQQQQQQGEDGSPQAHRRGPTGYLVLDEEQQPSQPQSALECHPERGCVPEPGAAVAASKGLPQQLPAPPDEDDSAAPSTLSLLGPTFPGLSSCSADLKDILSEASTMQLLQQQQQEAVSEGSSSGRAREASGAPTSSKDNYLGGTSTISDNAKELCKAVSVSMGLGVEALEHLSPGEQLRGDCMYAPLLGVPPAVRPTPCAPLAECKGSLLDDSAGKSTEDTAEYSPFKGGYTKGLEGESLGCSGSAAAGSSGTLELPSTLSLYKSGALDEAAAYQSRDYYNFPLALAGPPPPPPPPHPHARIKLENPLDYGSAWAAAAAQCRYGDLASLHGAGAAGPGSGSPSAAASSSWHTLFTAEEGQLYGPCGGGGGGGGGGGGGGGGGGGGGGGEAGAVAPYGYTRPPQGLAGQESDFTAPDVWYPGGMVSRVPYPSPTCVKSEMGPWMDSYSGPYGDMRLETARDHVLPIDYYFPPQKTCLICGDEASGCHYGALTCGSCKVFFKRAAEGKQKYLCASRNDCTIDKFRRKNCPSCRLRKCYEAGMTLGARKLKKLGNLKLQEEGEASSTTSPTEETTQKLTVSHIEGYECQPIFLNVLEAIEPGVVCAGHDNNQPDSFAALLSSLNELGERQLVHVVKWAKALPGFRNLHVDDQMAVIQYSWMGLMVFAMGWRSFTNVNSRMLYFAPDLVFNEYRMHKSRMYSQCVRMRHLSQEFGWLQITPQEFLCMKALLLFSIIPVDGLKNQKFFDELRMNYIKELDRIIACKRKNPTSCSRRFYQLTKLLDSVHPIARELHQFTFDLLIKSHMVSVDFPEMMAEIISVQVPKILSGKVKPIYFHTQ
As to the kind of experiment: AR Antagonist Cell Assay (MDA-MB453-MMTV clone 54-19, luciferase reporter). Type of assay: cell-based. The settings on record: inhibition of induction by DHT (final concentration at 100 μM), 17 hr, compound 0.32-1000 nM, mean of multiple tests. An outline of the steps: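 MDA-MB453 breast tumour cells stably carrying an ARE-containing MMTV promoter driving firefly luciferase, plated overnight at 37° C in charcoal-treated serum medium. DHT added (final […]) and incubated 17 hr at 37° C. Luminescence read after adding luciferase buffer; values are means of multiple tests.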

The target in the next assay is T2, hAR (Homo sapiens, UniProt P10275).
T2 sequence (P10275 1-920): T1 sequence (P10275 1-920 Q868H) with H868Q
As to the kind of experiment: Competitive binding of 3H-DHT to baculovirus/Sf9 generated hAR extracts. The settings on record: one hour at 4° C., mean of multiple tests. An outline of the steps:
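Baculovirus/Sf9-expressed hAR extract incubated with test compound, hydroxylapatite and 1 nM 3H-DHT tracer for 1 h at 4° C, then washed free of unbound tracer. Affinity given as concentration inhibiting half of maximal 3H-DHT binding.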

Where [1] appears, read: concentration at which one half of maximum binding of 1 nM 3H-DHT to hAR is inhibited, read-out: IC50.
Setting [2] is: IC50, concentration at which one half of maximum binding of 1 nM 3H-DHT to hAR is inhibited.

Substitutions are numbered along the chain they refer to. Where two headings read alike, the source gives them in different places.

For the compound `COc1ccc(Cc2noc(CN3CC(C)(C)C(Oc4ccc(C#N)c(C(F)(F)F)c4)C3=O)n2)cc1` (centres unmarked) [Example 50, 4-{1-[3-(4-Methoxy-benzyl)-[1,2,4]oxadiazol-5-ylmethyl]-4,4-dimethyl-2-oxo-pyrrolidin-3-yloxy}-2-trifluoromethyl-benzonitrile], the IC50 – broadly, the concentration needed to halve the response being measured – was 35 nM at androgen receptor and 152 nM on hAR (setting [1]).

On to `Cc1ccc(-c2nnc(CN3CC(C)(C)C(Oc4ccc(C#N)c(C(F)(F)F)c4)C3=O)o2)s1` (centres unmarked) [Example 117, 4-{4,4-Dimethyl-1-[5-(5-methyl-thiophen-2-yl)-[1,3,4]oxadiazol-2-ylmethyl]-2-oxo-pyrrolidin-3-yloxy}-2-trifluoromethyl-benzonitrile], for which the IC50 was 117 nM on androgen receptor (read-out: IC50) and 259 nM at hAR (setting [1]).

With `CC(c1nnc(-c2ccccc2O)o1)N1CC(C)(C)C(Oc2ccc(C#N)c(C(F)(F)F)c2)C1=O` (centres unmarked) [Example 130, 4-(1-{1-[5-(2-hydroxy-phenyl)-[1,3,4]oxadiazol-2-yl]-ethyl}-4,4-dimethyl-2-oxo-pyrrolidin-3-yloxy)-2-trifluoromethyl-benzonitrile], the 50% inhibitory concentration (IC50) on androgen receptor (read-out: IC50) turned out to be 198 nM; on hAR (setting [2]), 85 nM.

For `CCS(=O)(=O)N1CC(C)(C)C(Oc2ccc(C#N)c(C(F)(F)F)c2)C1=O` (centres unmarked) [Example 78, 4-(1-Ethanesulfonyl-4,4-dimethyl-2-oxo-pyrrolidin-3-yloxy)-2-trifluoromethyl-benzonitrile], the results for the half-maximal inhibitory concentration (IC50) at androgen receptor (read-out: IC50) and at hAR (setting [1]) were 246 nM and 103 nM, respectively.

Turning to `Cc1csc(S(=O)(=O)N2CC(C)(C)C(Oc3ccc(C#N)c(C(F)(F)F)c3)C2=O)c1` (centres unmarked) [Example 86, 4-[4,4-Dimethyl-1-(4-methyl-thiophene-2-sulfonyl)-2-oxo-pyrrolidin-3-yloxy]-2-trifluoromethyl-benzonitrile], the concentration for half-maximal inhibition (IC50) amounted to 105 nM at androgen receptor (read-out: IC50) and 140 nM at hAR (setting [1]).

`CSCN1CC(C)(C)C(Oc2ccc(C#N)c(C(F)(F)F)c2)C1=O` (centres unmarked) [Example 68, 4-(4,4-Dimethyl-1-methylsulfanylmethyl-2-oxo-pyrrolidin-3-yloxy)-2-trifluoromethyl-benzonitrile]: the values for the IC50 against androgen receptor and on hAR (setting [1]) were 64 nM and 133 nM, respectively.

With `CC1(C)CN(Cc2ccccc2O)C(=O)C1Oc1ccc(C#N)c(C(F)(F)F)c1` (centres unmarked) [Example 11, 4-[1-(2-Hydroxy-benzyl)-4,4-dimethyl-2-oxo-pyrrolidin-3-yloxy]-2-trifluoromethyl-benzonitrile], the results for the half-inhibitory concentration (IC50) against androgen receptor and at hAR (setting [2]) were 14 nM and 17 nM, respectively.

Regarding `COC(=O)c1cccc(CN2CC(C)(C)C(Oc3ccc(C#N)c(C(F)(F)F)c3)C2=O)c1` (racemic) [Example 25, (±)-3-[3-(4-Cyano-3-trifluoromethyl-phenoxy)-4,4-dimethyl-2-oxo-pyrrolidin-1-ylmethyl]-benzoic acid methyl ester], the values for the IC50 at androgen receptor (read-out: IC50) and on hAR (setting [2]) were 107 nM and 48 nM, respectively.

Consider `CC1(C)CN(S(=O)(=O)c2ccsc2)C(=O)C1Oc1ccc(C#N)c(C(F)(F)F)c1` (centres unmarked) [Example 84, 4-[4,4-Dimethyl-2-oxo-1-(thiophene-3-sulfonyl)-pyrrolidin-3-yloxy]-2-trifluoromethyl-benzonitrile], for which the 50% inhibitory concentration (IC50) against androgen receptor was determined as 55 nM; on hAR (setting [2]), 85 nM.

Take `COC(=O)c1ccc(CN2CC(C)(C)C(Oc3ccc(C#N)c(C(F)(F)F)c3)C2=O)cc1` (centres unmarked) [Example 37, 4-[3-(4-Cyano-3-trifluoromethyl-phenoxy)-4,4-dimethyl-2-oxo-pyrrolidin-1-ylmethyl]-benzoic acid methyl ester]: the IC50 on androgen receptor was determined as 84 nM; on hAR (setting [2]) it was 47 nM.

For the compound `CC1(C)CN(Cc2nnc(-c3ccc(F)cc3)o2)C(=O)C1Oc1ccc(C#N)c(C(F)(F)F)c1` (centres unmarked) [Example 116, 4-{1-[5-(4-Fluoro-phenyl)-[1,3,4]oxadiazol-2-ylmethyl]-4,4-dimethyl-2-oxo-pyrrolidin-3-yloxy}-2-trifluoromethyl-benzonitrile], the half-inhibitory concentration (IC50) on androgen receptor (read-out: IC50) was determined as 369 nM; on hAR (setting [1]), 206 nM.

For the compound `CC1(C)CN(Cc2ccc(O)cc2)C(=O)C1Oc1ccc(C#N)c(C(F)(F)F)c1` (single isomer, unassigned) [Example 9, 4-[1-(4-Hydroxy-benzyl)-4,4-dimethyl-2-oxo-pyrrolidin-3-yloxy]-2-trifluoromethyl-benzonitrile], the IC50 against androgen receptor amounted to 46 nM; on hAR (setting [2]) it was 18 nM.

For `Cc1ccccc1S(=O)(=O)N1CC(C)(C)C(Oc2ccc(C#N)c(C(F)(F)F)c2)C1=O` (centres unmarked) [Example 94, 4-[4,4-Dimethyl-2-oxo-1-(toluene-2-sulfonyl)-pyrrolidin-3-yloxy]-2-trifluoromethyl-benzonitrile], the IC50 on androgen receptor (read-out: IC50) is greater than 1000 nM; at hAR (setting [1]) it was 150 nM.

As to `Cc1ccsc1S(=O)(=O)N1CC(C)(C)C(Oc2ccc(C#N)c(C(F)(F)F)c2)C1=O` (centres unmarked) [Example 87, 4-[4,4-Dimethyl-1-(3-methyl-thiophene-2-sulfonyl)-2-oxo-pyrrolidin-3-yloxy]-2-trifluoromethyl-benzonitrile], the IC50 was 502 nM on androgen receptor (read-out: IC50) and 115 nM on hAR (setting [1]).

Regarding `COc1cc(OC2C(=O)N(C(C)c3ccccc3)CC2(C)C)ccc1C#N` (centres unmarked) [Example 110, 4-[4,4-Dimethyl-2-oxo-1-(1-phenyl-ethyl)-pyrrolidin-3-yloxy]-2-methoxy-benzonitrile], the IC50 on androgen receptor (read-out: IC50) was 126 nM; at hAR (setting [2]), 87 nM.

As to `CC1(C)CN(Cc2ccc(C#N)cc2)C(=O)C1Oc1ccc(C#N)c(C(F)(F)F)c1` (centres unmarked) [Example 48, 4-[1-(4-Cyano-benzyl)-4,4-dimethyl-2-oxo-pyrrolidin-3-yloxy]-2-trifluoromethyl-benzonitrile], the half-inhibitory concentration (IC50) against androgen receptor was 62 nM; on hAR (setting [1]), 109 nM.

As to `CC1(C)CN(C(=O)c2ccccc2)C(=O)C1Oc1ccc(C#N)c(C(F)(F)F)c1` (single isomer, unassigned; (+)) [Example 105, (+)-4-(1-Benzoyl-4,4-dimethyl-2-oxo-pyrrolidin-3-yloxy)-2-trifluoromethyl-benzonitrile], the concentration for half-maximal inhibition (IC50) was found to be 22 nM at androgen receptor and 252 nM at hAR (setting [1]).

As to `CC1(C)CN(Cc2ccccc2)C(=O)C1Oc1ccc(C#N)c(C(F)(F)F)c1` (centres unmarked) [Example 5, 4-(1-Benzyl-4,4-dimethyl-2-oxo-pyrrolidin-3-yloxy)2-trifluoromethyl-benzonitrile], the IC50 came to 12 nM on androgen receptor and 32 nM at hAR (setting [2]).

As for `CC1(C)CN(S(C)(=O)=O)C(=O)C1Oc1ccc(C#N)c(C(F)(F)F)c1` (single isomer, unassigned) [Example 100, 4-(1-Methanesulfonyl-4,4-dimethyl-2-oxo-pyrrolidin-3-yloxy)-2-trifluoromethyl-benzonitrile], the IC50 against androgen receptor and at hAR (setting [2]) was 12 nM throughout.
